Test results taken from patent publication US10041047B2, “Compositions and methods for epithelial stem cell expansion and culture” (The Brigham and Women's Hospital, Inc., priority 2013, dated 2018).

Experiments:
[1] = test system: Lgr5+ stem cells in small intestinal crypts; assay: Small intestinal crypt culture from Lgr5-GFP mice in Matrigel: cell proliferation and Lgr5-GFP expression; assay type: cell-based, mouse
Experimental: Crypts and single Lgr5-GFP cells were isolated as previously described (Sato et al., 2009). Briefly, the proximal half of the small intestine was harvested, opened longitudinally, and washed with cold PBS to remove luminal content. The tissue was then cut into 2-4 mm pieces with scissors and further washed 5-10 times with cold PBS by pipetting up and down using a 10-ml pipette. Tissue fragments were incubated with 2 mM EDTA in PBS for 30 min on ice. After removal of EDTA, tissue fragments were washed with PBS to release crypts. Supernatant fractions enriched in crypts were collected, passed through a 70 μm cell strainer and centrifuged at 300 g for 5 minutes. The cell pellet was re-suspended with cell culture media without growth factors and centrifuged at 150 g to remove single cells. Crypts were then cultured or used for single cell isolation. To obtain single cells, crypts were incubated in culture medium for 45 minutes at 37° C. and triturated with a glass pipette. Dissociated cells were passed through 20 μm cell strainer, negative stained with propidium iodide and single viable GFP-high cells were sorted by flow cytometry (FACS Aria, BD) as previously described (Sato et al., 2009). Small intestinal crypts isolated from Lgr5-EGFP-ires-CreERT2 mice were embedded in Matrigel and cultured under conventional culture conditions in the presence of EGF, Noggin and R-spondin 1 (collectively referred to as ENR) leading to organoids with crypts and villus-like domains and GFP^+ cells at the crypt tips, consistent with previous reports (Sato et al., 2009). Isolated crypts or single cells were cultured as previously described (Sato et al., 2009) with minimal modification. Briefly, crypts or single cells were entrapped in Matrigel and plated at the center of wells in a 24-well plate. After polymerization of Matrigel (growth factor reduced; BD Bioscience), 500 μl of culture medium (Advanced DMEM/F12 (Life Technologies)) was added containing growth factors including EGF (50 ng/ml, Life Technologies), Noggin (100 ng/ml, Peprotech) and R-spondin 1 (500 ng/ml, R&D) and small molecules including CHIR99021 (3 μM, Stemgent) and Valproic Acid (1 mM, Sigma-Aldrich). For comparison of different culture conditions, small molecules or growth factors were added to freshly isolated crypts immediately after plating in Matrigel to test the ability to minimize potential differentiation of the ISC within the crypts and thus sustain crypt cultures. Cell culture media was changed every other day. For single cell culture, cells were embedded in Matrigel containing Jagged-1 peptide (1 μM; AnaSpec) and Y-27632 (10 μM; Tocris) was added for the first 2 days. Cells were passaged either as cell colonies as previously described (Sato et al., 2009) or as single cells. For single cell passage, cell culture medium was removed and Accutase (Life Technologies) was added. After incubation at 37° C. for 10-20 minutes, cell colonies were dissociated into single cells by pipetting. Cells were then washed, embedded in fresh Matrigel and plated into 24-well plates. Cells cultured in the CV condition were passaged every 6 days at a 1:20 split ratio. Approximately half of the cultured crypts contained GFP+ cells, which is consistent with the in vivo GFP expression of Lgr5-GFP mice (FIG. 1).
The growth factors used in the ENR condition provide essential, but not adequate cues to sustain the self-renewal of Lgr5^+ stem cells. To identify factors essential to maintaining the self-renewal status of intestinal stem cells, selected small molecules that modulate signaling pathways of ISCs, such as Wnt, Notch, and BMP, were tested under the ENR condition, using the Lgr5-GFP reporter.
CHIR is a highly-specific GSK3 inhibitor that activates the Wnt/β-catenin signaling pathway (Bain et al., 2007), and has been used to maintain the self-renewal state of embryonic stem cells (Ying et al., 2008). […]

[2] = test system: Lgr5+ stem/progenitor cells derived from the mouse inner ear; assay: Culture of inner ear (cochlear) Lgr5-GFP epithelial cells in Matrigel; assay type: cell-based; settings: single cochlear epithelial cells, 11 days (FIG. 13B)
[3] = test system: Notch pathway genes (Notch1, Hes1, Atoh1); assay: Real-time RT-PCR of Notch pathway genes in cultured crypts; assay type: cell-based, mouse; settings: VPA added to ENR or ENR-C for 24 hours
Experimental: Crypts were cultured in ENR-C condition with or without DAPT (D, 5 μM) and varying concentration of VPA (V, 0.25-4 mM) for 3 days. […] FIGS. 11B and 11C depict crypts cultured in the ENR (FIG. 11B) or ENR+CHIR (FIG. 11C) conditions for 4 days followed by addition of VPA at different concentrations for another 24 hours. The expression of Notch1, Hes1 and Atoh1 were analyzed by Real-time RT-PCR.
To investigate the effect of VPA on the activation of the Notch pathway, cells cultured in ENR or ENRC conditions were treated with VPA and analyzed for the expression of Notch pathway genes.

[4] = test system: human small intestinal crypts; assay: Culture of human small intestinal crypts: LGR5 expression (RT-PCR) and cell number; assay type: cell-based; settings: cell numbers at day 9 after seeding (FIG. 25A)
Source text: Human small intestinal crypts were isolated from a resected normal small intestinal specimen and cultured as described in Example 1. The same cell culture solutions used in the culture of mouse small intestinal stem cells/crypts, which comprise a combination of CHIR99021 and VPA or Tubastatin A added to the ENR (EGF, Noggin, R-Spondin 1) condition, were compared to published cell culture solutions for human intestinal stem cells/crypts (Jung et al., 2011; Sato et al., 2011). RT-PCR was used to assess the maintenance of epithelial stem cells in the culture, specifically by determining the self-renewal or differentiation status. LGR5 was used as a stem cell marker and ALPI, MUC2, CHGA and LYZ were used as differentiation markers. Cell growth was assessed by counting the cell number in the cultures and by observing the morphology and size of colonies.

[5] = test system: Lgr5+ stem cells from the colon; assay: Colon crypt culture, Lgr5-GFP expression; assay type: cell-based, mouse; settings: colon crypts (FIG. 3F)
Source text: FIGS. 3A and 3B depict colony numbers and live single cell numbers, respectively, from triplicate wells enumerated at each time point. Error bars indicate S.D. In FIG. 3A, the series are, from left to right, Day 0, Day 2, Day 4, Day 6, Day 8, and Day 10. FIG. 3C depicts FACS sorting of freshly isolated single Lgr5-GFP+ cells. A GFP^high single cell population was collected. Representative FACS analysis and the gating strategy to define the GFP+ cell population is shown. […] The GFP-population represents Lgr5- cells as well as Lgr5+/GFP- cells (i.e. GFP silenced stem cells), which is present in all unsorted crypt cultures, but not in sorted single Lgr5-GFP cell cultures (See FIG. 2C). A total of 10,000 live cells were analyzed for each sample. FIG. 3D depicts growth factor requirements for self-renewal of Lgr5+ stem cells in the CV culture condition. Crypts were cultured for 6 days in the presence of CHIR and VPA, with EGF, Noggin, R-spondin 1 and their combinations, as indicated. E: EGF (50 ng/ml); N: Noggin (100 ng/ml); R: R-spondin 1 (500 ng/ml); […] (1 mM). FIG. 3E depicts crypts cultured for 6 days in multiple conditions as indicated. GFP and brightfield images are shown. Scale bars: 200 μm. FIG. 3F depicts morphology and Lgr5-GFP expression of colon crypts cultured in ENR, ENR-C and ENR-CV conditions. […]

[6] = crypts cultured 6 days, agent added to ENR condition
[7] = multiple concentrations (FIG. 9E)

SMILES	GFP expression (percentage and relative GFP intensity of GFP+ cells) [1, 6]	cell proliferation of crypt cells (organoid size and cell numbers) ([1]; crypts cultured 6 days, agent added to ENR condition, compared to ENR)	need of R-Spondin1 to promote GFP expression ([1]; increasing the concentration of CHIR, crypts 6 days)	GFP expression [2]	cell proliferation [2]	colony-forming efficiency [2]	rescue of cell proliferation and GFP expression following Notch inhibition ([1]; ENR-C with DAPT 5 μM and VPA 0.25-4 mM, 3 days)	GFP expression at multiple concentrations [1, 7]	cell proliferation at higher concentration [1, 7]	expression of Hes1 [3]	expression of Notch1 [3]	proliferation of human small intestinal crypts (cell number) [4]	GFP expression of Lgr5+ stem cells from the colon [5]
Cc1cnc(-c2cnc(NCCNc3ccc(C#N)cn3)nc2-c2ccc(Cl)cc2Cl)[nH]1 [CHIR99021, 6-[[2-[[4-(2,4-Dichlorophenyl)-5-(5-methyl-1H-imidazol-2-yl)-2-pyrimidinyl]amino]ethyl]amino]-3-pyridinecarbonitrile]	increased the percentage and relative GFP intensity	promoted the proliferation	eliminated the need of R-Spondin1	not CHIR alone	not CHIR alone	not CHIR alone	–	–	–	–	–	–	–
CCCC(CCC)C(=O)O [Valproic Acid]	significantly increased	–	–	–	–	–	rescued	maintained GFP expression	marked proliferation inhibition effect	moderately decreased	moderately decreased	increased cell proliferation	promoted GFP expression
